Source: PubChem BioAssay (NCI)
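These data come from cells grown in 96-well plates and exposed to compound for 48 hours at five concentrations. GI50 marks 50% less growth. TGI denotes the concentration required for complete inhibition of growth.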

Assays:
Test in all cases: growth of human tumour cells (NCI), 48 h; in the data active = GI50 below about 0.43 µM; inactive = the rest
[1] = system: 786-0 renal
[2] = system: A549 NSCLC
[3] = system: ACHN renal
[4] = system: BT-549 breast
[5] = system: CAKI-1 renal
[6] = system: CCRF-CEM leukemia
[7] = system: COLO 205 colon
[8] = system: DU-145 prostate
[9] = system: EKVX NSCLC
[10] = system: HCC-2998 colon
[11] = system: HCT-116 colon
[12] = system: HCT-15 colon
[13] = system: HL-60(TB) leukemia
[14] = system: HOP-62 NSCLC
[15] = system: HOP-92 NSCLC
[16] = system: HS 578T breast
[17] = system: HT29 colon
[18] = system: IGROV1 ovarian
[19] = system: K-562 leukemia
[20] = system: KM12 colon
[21] = system: LOX IMVI melanoma
[22] = system: M14 melanoma
[23] = system: MALME-3M melanoma
[24] = system: MCF7 breast
[25] = system: MDA-MB-231 breast
[26] = system: MDA-MB-435
[27] = system: MOLT-4 leukemia
[28] = system: NCI-H226 lung
[29] = system: NCI-H23 lung
[30] = system: NCI-H460 lung
[31] = system: NCI-H522 lung
[32] = system: NCI/ADR-RES ovarian
[33] = system: OVCAR-3 ovarian
[34] = system: OVCAR-4 ovarian
[35] = system: OVCAR-5 ovarian
[36] = system: OVCAR-8 ovarian
[37] = system: PC-3 prostate
[38] = system: RPMI-8226 leukemia
[39] = system: RXF 393 renal
[40] = system: SF-268 CNS
[41] = system: SF-295 CNS
[42] = system: SF-539 CNS
[43] = system: SK-MEL-2 melanoma
[44] = system: SK-MEL-28 melanoma
[45] = system: SK-MEL-5 melanoma
[46] = system: SK-OV-3 ovarian
[47] = system: SN12C renal
[48] = system: SNB-19 CNS
[49] = system: SNB-75 CNS
[50] = system: SR leukemia
[51] = system: SW-620 colon
[52] = system: T-47D breast
[53] = system: TK-10 renal
[54] = system: U251 CNS
[55] = system: UACC-257 melanoma
[56] = system: UACC-62 melanoma
[57] = system: UO-31 renal
[58] = system: A498 renal

COc1ccc(CNc2nc3cc(N)cc(N)c3nc2-c2ccccc2)cc1OC
> 63.2 µM: TGI [24]
38.9 µM: TGI [35]
> 93.5 µM: TGI [39]
> 27.5 µM: TGI [52]
> 68.6 µM: TGI [16]
28.4 µM: TGI [20]
13.5 µM: TGI [38]
26.5 µM: TGI [34]
24.6 µM: TGI [31]
> 37.6 µM: TGI [21]
24.9 µM: TGI [56]
> 95.3 µM: TGI [30]
30.8 µM: TGI [28]
4.05 µM: TGI [26]
inactive: GI50 [1] 15.7 µM | GI50 [2] 23.6 µM | GI50 [3] 14.4 µM | GI50 [4] 14.8 µM | GI50 [5] 12.6 µM | GI50 [6] 3.48 µM | GI50 [7] 7.15 µM | GI50 [8] 41 µM | GI50 [9] 13 µM | GI50 [10] 17 µM | GI50 [11] 15.4 µM | GI50 [12] 28 µM | GI50 [13] 3.17 µM | GI50 [14] 18.8 µM | GI50 [15] 13.4 µM | GI50 [16] 23.4 µM | GI50 [17] 7.26 µM | GI50 [18] 13.5 µM | GI50 [19] 10.9 µM | GI50 [20] 12.8 µM | GI50 [21] 6.53 µM | GI50 [22] 8.56 µM | GI50 [23] 3.98 µM | GI50 [24] 20.9 µM | GI50 [25] 4.27 µM | GI50 [26] 2.07 µM | GI50 [27] 3.92 µM | GI50 [28] 15.4 µM | GI50 [29] 16.9 µM | GI50 [30] 27.1 µM | GI50 [31] 8.16 µM | GI50 [32] 17.7 µM | GI50 [33] 1.31 µM | GI50 [34] 7.36 µM | GI50 [35] 20.6 µM | GI50 [36] 10.5 µM | GI50 [37] 10.9 µM | GI50 [38] 3.14 µM | GI50 [39] 12.7 µM | GI50 [40] 16.6 µM | GI50 [41] 15.3 µM | GI50 [42] 18.9 µM | GI50 [43] 13.9 µM | GI50 [44] 15 µM | GI50 [45] 9.27 µM | GI50 [46] 22.8 µM | GI50 [47] 14 µM | GI50 [48] 20.1 µM | GI50 [49] 14.1 µM | GI50 [50] 2.94 µM | GI50 [51] 7.77 µM | GI50 [52] 4.16 µM | GI50 [53] 16.8 µM | GI50 [54] 17.3 µM | GI50 [55] 14.7 µM | GI50 [56] 11.7 µM | GI50 [57] 15 µM
35.7 µM: TGI [29]
29.1 µM: TGI [37]
32 µM: TGI [3]
71.5 µM: TGI [6]
29.8 µM: TGI [15] | TGI [41]
> 58.9 µM: TGI [51]
41.1 µM: TGI [42]
25.9 µM: TGI [50]
> 89.9 µM: TGI [13]
> 93.6 µM: TGI [8]
29.2 µM: TGI [55]
31.5 µM: TGI [11]
33.8 µM: TGI [44]
34.4 µM: TGI [14]
32.5 µM: TGI [4]
39.8 µM: TGI [10]
32.8 µM: TGI [53]
37.4 µM: TGI [49]
> 61 µM: TGI [48]
58.2 µM: TGI [32]
3.33 µM: TGI [33]
45.6 µM: TGI [46]
25.3 µM: TGI [45]
15.6 µM: TGI [22]
26.2 µM: TGI [5]
32.1 µM: TGI [36]
> 48.8 µM: TGI [7]
> 70.6 µM: TGI [2]
49.5 µM: TGI [43]
> 100 µM: TGI [19] | TGI [27]
27.9 µM: TGI [47]
10.6 µM: TGI [25]
40.7 µM: TGI [57]
38.1 µM: TGI [18] | TGI [54]
> 94.1 µM: TGI [12]
44.6 µM: TGI [9]
14.4 µM: TGI [23]
65.9 µM: TGI [40]
33.5 µM: TGI [1]
46.2 µM: TGI [17]

CN(C)NC1=NS(=O)(=O)c2cc3c(cc2S1)N(N(C)C)C(=O)c1cc2c(cc1N(N(C)C)C3=O)SC(NN(C)C)=NS2(=O)=O
> 10 µM: TGI [1] | TGI [58] | TGI [2] | TGI [3] | TGI [4] | TGI [5] | TGI [6] | TGI [7] | TGI [8] | TGI [9] | TGI [10] | TGI [11] | TGI [12] | TGI [13] | TGI [14] | TGI [15] | TGI [16] | TGI [17] | TGI [18] | TGI [19] | TGI [20] | TGI [21] | TGI [22] | TGI [23] | TGI [24] | TGI [27] | TGI [28] | TGI [29] | TGI [30] | TGI [31] | TGI [32] | TGI [33] | TGI [34] | TGI [35] | TGI [36] | TGI [37] | TGI [38] | TGI [39] | TGI [40] | TGI [41] | TGI [42] | TGI [43] | TGI [44] | TGI [45] | TGI [46] | TGI [47] | TGI [48] | TGI [49] | TGI [50] | TGI [51] | TGI [52] | TGI [53] | TGI [54] | TGI [55] | TGI [57]
